Experiment [1] is described as follows: body weight and dietary intake of leptin receptor-deficient (ob/ob) mice. It counts as in vivo, mouse. On the procedure:
All experimental animal procedures were performed according to a guideline of Institutional Animal Care and Use Committee, Chungnam National University School of Medicine. OLETF rats were purchased from Otsuka Research Institute. Male ob/ob and C57BL/6 mice were purchased from Jackson Laboratory. Animals were housed in a breeding room maintained at a constant temperature of […] and a 12 h/12 h light/dark (L/D) cycle. 4-week-old C57BL/6 male mice were fed ad libitum high fat diet (HFD, 24% (w/w) and 45% calories as fat, Research Diets Inc., New Brunswick, N.J. 08901, US) for 7 weeks. Mouse groups were divided into an untreated group, a vehicle-treated group (calcium silicate), a pair-fed group and a candidate compound-treated group (calcium silicate-coated […] nanoparticles). Body weight and dietary intake of animals were daily measured. Upon completion of experiments, some mice of each group were anesthetized and received MRI examinations. The remaining mice of the groups were anatomized and tissue weight thereof was measured. Epidydimal fat, liver, soleus muscle and extensor digitorum longus (EDL) were prepared, and immunohistochemical, oil-red 0 and pH-sensitive ATPase staining were performed for analysis.
FIGS. 46 and 47 show changes in dietary intake/body weight and changes in body weight for 56 days, according to daily administration of pyrano-1,2-naphthoquinone into leptin receptor-deficient (ob/ob) mice at a dose of 200 mg/kg via an oral route.
This Example was intended to examine effects of varying in vivo NAD(P)^+/NAD(P)H ratio by arbitrary external supply of NAD(P)^+, a method capable of elevating the NAD(P)^+/NAD(P)H ratio in vivo. 100 mg/kg of NAD^+ was administered daily to leptin receptor-deficient (ob/ob) mice via an intraperitoneal (i.p.) route. A control mice group was given i.p. administration of physiological saline at the same dose. Changes in dietary intake/body weight (A) and changes in body weight (B) were measured for 30 days.
200 mg/kg of DMF was daily administered to leptin receptor-deficient (ob/ob) mice via an oral route. A control group received daily i.p. administration of physiological saline at the same dose. Changes in body weight (A) and changes in dietary intake (B) were measured for 30 days. It was confirmed that dietary intake of the treatment group was regulated to a 60 to 70% level of the control group.
For a variety of NQO1-activating candidate compounds as listed in Table 1 below, a decrease of NAD(P)H was measured based on the aforesaid experimental method (disclosed in Section 10 hereinbefore: NADH recycling assay). In addition, according to the experimental method given in Example 23, the body weight of ob/ob mice after four weeks was measured.
In this connection, the decreasing degree of NAD(P)H was expressed as a relative amount of NAD(P)H measured upon administration of the NQO1-activating candidate compound, by taking the amount of NAD(P)H in the absence of the NQO1 activator NAD(P)H to be 100. In addition, the degree of the body weight loss was expressed as a percentage of the body weight of ob/ob mice with administration of the NQO1-activating candidate compound, relative to the body weight of ob/ob mice without administration of the NQO1-activating candidate compound (control) after four weeks.

The next experiment has as its system ACC, CPT, HAD. Nature of the experiment: enzyme assays, malonyl-CoA content and fatty acid oxidation in DIO mice. It counts as in vivo, mouse. The procedure:
For Enzyme assays, cytoplasm was extracted from mouse tissues. Dicoumarol-sensitive NQO1 activity was determined by a conventional method known in the art: This method is based on an absorbance decrease at 600 nm due to bioreduction of DCPIP. Total AMPK activity was determined with a known method using synthetic “SAMS” peptides and [γ-^32P] ATP. ACC activity was determined by quantifying fixation of ^14CO2 to the acid-stable product in the presence/absence of citrate (2 mM) as an allosteric activator of ACC. CPT (carnitine palmitoyl transferase) activity was measured in L6 myoblasts and soleus muscle by a known method. HAD (3-hydroxyacyl-CoA dehydrogenase) activity was determined in L6 myoblasts and soleus muscle by monitoring conversion of acetoacetyl-CoA into L-3-hydroxybutyryl CoA and the concomitant oxidation of NADH into NAD^+. The reaction was monitored at 340 nm by a known method.
[^14C]palmitoyl-CoA (Perkin Elmer) oxidation was determined in L6 myoblasts and soleus muscle by a known method using labeled CO2 and 0.2 mL of benzethonium chloride solution.
Contents of Malonyl-CoA were determined by a known method, e.g. HPLC. Acyl-CoA esters were separated by HPLC using 0.2 M ammonium acetate-containing acetonitrile/water (1.75:98.25). Samples were washed with 20 min, and subjected to 100 min linear gradient elution from acetonitrile/water (10:90) containing 0.2 M ammonium acetate.
That is, such facts mean that chronic treatment of βL can accelerate mitochondrial oxidative phosphorylation and enhance adaptive mitochondrial biogenesis. Therefore, βL can be used as a therapeutic agent for metabolic diseases.

Setting [2] is: muscle of DIO mice vs control group.

Consider `CC1(C)CCC2=C(O1)c1ccccc1C(=O)C2=O` [βL, 2,2-Dimethyl-3,4-dihydro-2H-benzo[h]chromene-5,6-dione], for which the body weight result in experiment [1] (200 mg/kg daily oral, 56 days) is “effectively decreases body weight”. Also, the “dietary intake level recovered, relative to control group” value in experiment [1] (200 mg/kg daily oral, after around 10 days) turned out to be 70%. The dietary intake/body weight result in experiment [1] (200 mg/kg daily oral, at around 10 days) is given as “notably decreased”. The “Weight reduction In ob/ob mice (4 wk)” value in experiment [1] (after four weeks, relative to ob/ob mice without administration (control), method of Example 23) is −16.8 ± 2.9%. Besides, in the experiment with ACC, CPT, HAD (setting [2]), the “14C-palmitoyl CoA β-oxidation” value was “significantly increased”, the CPT activity result is reported as “significantly increased” and the HAD activity entry was “significantly increased”. Besides, in the experiment on ACC, CPT, HAD (βL-treated DIO mice), the ACC activity result is listed as “decreased” and the “malonyl CoA level” value is “decreased”.
